From PubChem BioAssay (NCI)
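At the GI50, growth is halved. Definition used: TGI = concentration required for complete inhibition of growth.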

Key:
Test in all cases: inhibition of tumour cell growth, NCI panel, 384-well format
[1] = test system: 786-0 renal
[2] = test system: A498 renal
[3] = test system: A549 NSCLC
[4] = test system: ACHN renal
[5] = test system: BT-549 breast
[6] = test system: CAKI-1 renal
[7] = test system: COLO 205 colon
[8] = test system: DU-145 prostate
[9] = test system: EKVX NSCLC
[10] = test system: HCC-2998 colon
[11] = test system: HCT-116 colon
[12] = test system: HCT-15 colon
[13] = test system: HL-60(TB) leukemia
[14] = test system: HOP-62 NSCLC
[15] = test system: HOP-92 NSCLC
[16] = test system: HS 578T breast
[17] = test system: HT29 colon
[18] = test system: IGROV1 ovarian
[19] = test system: K-562 leukemia
[20] = test system: KM12 colon
[21] = test system: LOX IMVI melanoma
[22] = test system: M14 melanoma
[23] = test system: MALME-3M melanoma
[24] = test system: MCF7 breast
[25] = test system: MDA-MB-231 breast
[26] = test system: MDA-MB-435 melanoma
[27] = test system: MDA-MB-468 breast
[28] = test system: NCI-H226 lung
[29] = test system: NCI-H23 lung
[30] = test system: NCI-H322M lung
[31] = test system: NCI-H460 NSCLC
[32] = test system: NCI-H522 lung
[33] = test system: NCI/ADR-RES ovarian
[34] = test system: OVCAR-3 ovarian
[35] = test system: OVCAR-4 ovarian
[36] = test system: OVCAR-5 ovarian
[37] = test system: OVCAR-8 ovarian
[38] = test system: PC-3 prostate
[39] = test system: RPMI-8226 leukemia
[40] = test system: RXF 393 renal
[41] = test system: SF-268 CNS
[42] = test system: SF-295 CNS
[43] = test system: SF-539 CNS
[44] = test system: SK-MEL-2 melanoma
[45] = test system: SK-MEL-28 melanoma
[46] = test system: SK-MEL-5 melanoma
[47] = test system: SK-OV-3 ovarian
[48] = test system: SN12C renal
[49] = test system: SNB-19 CNS
[50] = test system: SNB-75 CNS
[51] = test system: SW-620 colon
[52] = test system: T-47D breast
[53] = test system: TK-10 renal
[54] = test system: U251 glioblastoma
[55] = test system: UACC-257 melanoma
[56] = test system: UACC-62 melanoma
[57] = test system: UO-31 renal

CC[C@@]1(O)C(=O)OCc2c1cc1n(c2=O)Cc2cc3c(CN(C)C)c(O)ccc3nc2-1
GI50 [1]: 18.2 nM
TGI [1]: 63.1 nM
GI50 [2]: 40.1 nM
TGI [2]: 255 nM
GI50 [3]: 50.1 nM
TGI [3]: 1220 nM
GI50 [4]: 20.4 nM
TGI [4]: 47 nM
GI50 [5]: < 15.6 nM
TGI [5]: 71.5 nM
GI50 [6]: 22.7 nM
TGI [6]: 247 nM
TGI [7]: 800 nM
TGI [8]: 37.4 nM
GI50 [9]: 366 nM
TGI [9]: 1860 nM
GI50 [10]: 118 nM
TGI [10]: 311 nM
TGI [11]: 222 nM
GI50 [12]: 50.7 nM
TGI [12]: 1130 nM
GI50 [13]: < 11.3 nM
TGI [13]: 23.9 nM
TGI [14]: 17.5 nM
GI50 [15]: 32.4 nM
TGI [15]: 266 nM
GI50 [16]: < 39.9 nM
TGI [16]: 715 nM
GI50 [17]: 49.6 nM
TGI [17]: 200 nM
GI50 [18]: 66.4 nM
TGI [18]: 749 nM
GI50 [19]: 15.9 nM
TGI [19]: 253 nM
GI50 [20]: 117 nM
TGI [20]: 673 nM
GI50 [21]: 11.4 nM
TGI [21]: 142 nM
GI50 [22]: 20.6 nM
TGI [22]: 64.7 nM
GI50 [23]: 130 nM
TGI [23]: 996 nM
GI50 [24]: < 15.7 nM
TGI [24]: 3480 nM
GI50 [25]: 182 nM
TGI [25]: 781 nM
GI50 [26]: 181 nM
TGI [26]: 619 nM
GI50 [27]: 10.2 nM
TGI [27]: < 16.5 nM
GI50 [28]: 19.9 nM
TGI [28]: 122 nM
GI50 [29]: 18.8 nM
TGI [29]: 56.5 nM
GI50 [30]: 143 nM
TGI [30]: 451 nM
GI50 [31]: 19.8 nM
TGI [31]: 100 nM
GI50 [32]: 19.8 nM
TGI [32]: 236 nM
GI50 [33]: 82 nM
TGI [33]: 326 nM
GI50 [34]: 53.3 nM
TGI [34]: 282 nM
GI50 [35]: 469 nM
TGI [35]: 1700 nM
GI50 [36]: 147 nM
TGI [36]: 482 nM
GI50 [37]: 17.1 nM
TGI [37]: 180 nM
GI50 [38]: 385 nM
TGI [38]: > 36600 nM
GI50 [39]: 28.6 nM
TGI [39]: 80.9 nM
GI50 [40]: 48.3 nM
TGI [40]: 143 nM
TGI [41]: 26 nM
GI50 [42]: < 13.1 nM
TGI [42]: 26.5 nM
GI50 [43]: 16.7 nM
TGI [43]: 42.6 nM
GI50 [44]: 219 nM
TGI [44]: 529 nM
GI50 [45]: 72.1 nM
TGI [45]: 1290 nM
GI50 [46]: 23.6 nM
TGI [46]: 69.1 nM
GI50 [47]: 31.6 nM
TGI [47]: 129 nM
GI50 [48]: 22 nM
TGI [48]: 75.3 nM
GI50 [49]: 24.5 nM
TGI [49]: 228 nM
GI50 [50]: 25.2 nM
TGI [50]: 60 nM
GI50 [51]: < 16.6 nM
TGI [51]: 637 nM
GI50 [52]: 21.8 nM
TGI [52]: 790 nM
GI50 [53]: 296 nM
TGI [53]: 3130 nM
GI50 [54]: < 13 nM
TGI [54]: 58.1 nM
GI50 [55]: 154 nM
TGI [55]: 1540 nM
GI50 [56]: 16 nM
TGI [56]: 63.2 nM
GI50 [57]: 41.6 nM
TGI [57]: 168 nM
